Measurements reported in the METLIN SMRT retention time set (Domingo-Almenara et al. 2019).

Assay: gradient 5% acetonitrile 3 min, to 50% in 2 min, to 85% in 15 min, held 3 min, 100 µL/min
Settings: column: Zorbax Extend-C18 2.1 x 50 mm; eluents: water / acetonitrile, 0.1% formic acid
Outline: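 Values are retention times taken from adduct peaks that software picked and an analyst inspected. The pure standards were run as mixtures of ~100 molecules on HPLC linked to a quadrupole time-of-flight mass spectrometer, in positive and negative ionization mode. A Zorbax Extend-C18 column (2.1 × 50 mm, 1.8 μm) was used at 100 μL/min with water and acetonitrile, each including 0.1% formic acid.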

| SMILES | RP-LC retention time [s] |
| --- | --- |
| CC(C)CN1CCn2cc(S(=O)(=O)NCc3cccc(F)c3)cc2C1=O | 813 |
| Cc1ccc(NS(=O)(=O)c2n[nH]c(C)c2C(=O)NCc2ccc(F)cc2F)cc1 | 821 |
| O=C(Nc1ccc2c(c1)CNCCO2)C1CC1 | 527 |
| O=C(CN1C(=O)c2ccccc2C1=O)Nc1nnc(C2=COCCO2)o1 | 609 |
| CCCN1C(=O)COc2ccc(-c3noc(-c4cccc(Cl)c4)n3)cc21 | 1350 |
| Cc1nc2ccc3nc(NC(=O)c4snnc4C)sc3c2s1 | 772 |
| C=CCN1CCN(C(=O)C2=NN(c3ccc(C)cc3)c3ncccc3S2(=O)=O)CC1 | 637 |
| CCc1nncn1C1CCN(S(=O)(=O)c2ccc(F)c(C)c2)CC1 | 715 |
| Cn1nnc2cc(-c3noc(C4CC(=O)N(c5cccc(Cl)c5)C4)n3)ccc21 (configuration not stated) | 864 |
| Cc1ccc(F)cc1NS(=O)(=O)c1cc2n(c1)CCN(CC(C)C)C2=O | 840 |
| Cc1ccc(C(=O)N2CCC(c3nc4ccncc4n3CC(C)C)C2)s1 (configuration not stated) | 569 |
| COCC1CCN(C(=O)C2CCN(c3cnn(Cc4ccccc4)c(=O)c3)CC2)CC1 | 727 |
| Cc1ccccc1-c1noc(C2CCCN2C(=O)Nc2cccc(Cl)c2)n1 (configuration not stated) | 1080 |
| COC1CN(C2CCN(C(=O)CC(C)C)CC2)C12CCOCC2 (configuration not stated) | 579 |
| CN(C)C(=O)c1cc2c(s1)CCC(C(=O)NCc1ccc(N3CCOCC3)cc1)C2 (configuration not stated) | 655 |
| Cc1cc(C(=O)Nc2nc(-c3ccc(Cl)cc3)c(C)s2)no1 | 1110 |
| Cc1ccc(-c2c(C)noc2C)cc1S(=O)(=O)Nc1ccccc1 | 932 |
| Cc1ccc(Cn2c(N3CCCC(C(=O)Nc4cc(C)cc(C)c4)C3)nc3ccsc3c2=O)cc1 (configuration not stated) | 1160 |

| SMILES | RP-LC retention time [s] |
| --- | --- |
| CCN1CCN(c2nc3cc(C(=O)OC)ccc3c(=O)n2-c2ccc3c(c2)OCO3)CC1 | 648 |
| CCc1cccc(NC(=O)C2CCCN(c3nnc(C)c4c(C)n(-c5ccccc5)nc34)C2)c1 (configuration not stated) | 815 |
| CC(=O)Nc1ccc(Cc2nc(-c3cccc(-c4ccn[nH]4)c3)no2)cc1 | 798 |
| CCOC(=O)C1CCN(C(=O)CCc2cc3cc(C)ccc3[nH]c2=O)CC1 | 729 |
| Cc1ccsc1C(=O)N1CCCn2nc(-c3ccncc3)cc2C1 | 602 |
| Cc1nc(C2CCOCC2)n(C2CCN(S(=O)(=O)c3cccc(Cl)c3)C2)n1 (configuration not stated) | 738 |
| COc1ccc(Nc2c(-c3ccc(OC)c(OC)c3)nc3cnccn23)cc1 | 730 |
| Cc1ccc2nc(NC(=O)Cc3csc4nc(-c5ccc(C)c(C)c5)cn34)sc2c1 | 953 |
| O=C(Nc1ccc2nc(N3CCCN(c4ncccn4)CC3)cc(C(=O)O)c2c1)c1ccc(F)cc1 | 616 |
| Cn1c(=O)sc2cc(S(=O)(=O)N3CCC(C(=O)Nc4ccc(F)c(Cl)c4)CC3)ccc21 | 938 |
| COc1cc(OC)cc(C(=O)NC2CCN(Cc3c(C)noc3C)C2)c1 (configuration not stated) | 613 |
| Cc1ccc(-c2nc3cc(C)ccn3c2Nc2ccccc2C)cc1 | 770 |
| COc1cccc(S(=O)(=O)N2CCC(c3cc(N)on3)CC2)c1 | 756 |
| O=C(Nc1ncnc2c1CCC2)c1ccc(S(=O)(=O)N2CCc3ccccc3C2)cc1 | 783 |
| CC(=O)Nc1ccc(S(=O)(=O)N2CCc3c(c(-c4nnc(-c5ccccc5)o4)nn3C)C2)cc1 | 775 |
| CCOc1ccc(N2C(=O)C3N=NN(Cc4nc(-c5ccc(Br)cc5)no4)C3C2=O)cc1 (configuration not stated) | 1050 |
| CCOC(=O)c1c(C)[nH]c(C(=O)N2CCC(CC(=O)NC3CCCC3)CC2)c1C | 720 |
| Cc1ccc(C)c(NC(=O)c2c(C)oc3nc(C)nc(N4CCOCC4)c23)c1 | 803 |

The remaining lines, values ahead:

| RP-LC retention time [s] | SMILES |
| --- | --- |
| 1240 | CCCN(CCC)S(=O)(=O)c1ccc(C(=O)Nc2nc(-c3ccc(F)cc3)cs2)cc1 |
| 900 | O=C(NCCc1ccccc1)N1CCc2nc(-c3ccc(F)cc3)ncc2C1 |
| 668 | O=C(Cc1csc(NC(=O)c2ccco2)n1)NCc1cccs1 |
| 870 | Cc1ccnn1-c1ccc(SCC(=O)Nc2cccc(F)c2)nn1 |
| 907 | COC(=O)c1ccccc1S(=O)(=O)N1CCc2c(c(-c3nnc(-c4ccccc4)o3)nn2C)C1 |
| 981 | C=CCn1c(C(=O)NCCc2c[nH]c3ccccc23)cc2cc(S(=O)(=O)N(C)C)ccc21 |
| 595 | O=C(Cn1c(=O)oc2ccccc21)NCc1n[nH]c(=O)c2ccccc12 |
| 1060 | Cc1ccccc1NC(=O)Cn1c(C)nc2c(sc3nc(-c4ccccc4)ccc32)c1=O |
| 747 | COc1ccccc1OCC(=O)NCc1ccsc1 |
| 1000 | CCOC(=O)c1noc2ncnc(Nc3ccccc3)c12 |
| 874 | CCCc1cc(C2CCCN2C(=O)NCCc2ccccc2)no1 (configuration not stated) |
| 1080 | COc1ccccc1N1CCN(c2cc(SCC(=O)NCCC3=CCCCC3)ncn2)CC1 |
| 656 | Cc1ccsc1C(=O)NCC1Cn2cccc2C(=O)N1C (configuration not stated) |
| 795 | COc1cc(NC(=O)Cc2csc3nc(-c4ccccc4)cn23)cc(OC)c1 |
| 620 | Cn1cc(CCN2CCN(C(=O)c3ccc(Br)cc3)CC2)c2cccnc21 |
| 908 | Cc1ccc(S(=O)(=O)NCc2ccccc2)cc1 |

| RP-LC retention time [s] | SMILES |
| --- | --- |
| 1330 | CCCN(C(=O)CC)c1nc(-c2ccc(C)cc2)cs1 |
| 577 | O=C(NC1CC1)c1cc(N2CCCC2)nc2ccccc12 |
| 740 | CCc1nnc(-c2cn(CC(=O)NCc3ccc(C)o3)c3ccccc23)o1 |
| 1190 | CCc1cc(=O)n(CC(=O)Nc2ccc(Cl)cc2)c(-c2ccccc2)n1 |
| 788 | CCc1noc2nc(C)n(CC(=O)NCc3ccccc3F)c(=O)c12 |
| 946 | CCCn1cc(S(=O)(=O)NCc2ccccc2C)c2cccnc21 |
| 657 | CC(C)Cn1c(=O)c2cc(C(=O)NCc3ccncc3)nn2c2ccccc21 |
| 790 | COc1ccc(NC(=O)Cn2nc3c(Oc4ccccc4C)nccn3c2=O)cc1 |
| 1240 | CC(C)CCNS(=O)(=O)c1ccccc1-c1nc(-c2ccccc2)no1 |
| 764 | CCOC(=O)c1cnc2nc(C)ccc2c1Nc1cc(F)ccc1Cl |
| 714 | COc1ccccc1CNC(=O)C1CCN(Cc2cn(C)c3ccc(Cl)cc23)CC1 |
| 760 | O=C(COc1ccccc1-c1nnc(-c2ccccc2)o1)N1CCN(C(=O)c2ccco2)CC1 |
| 816 | Cc1ccc(NC(=O)NCC(c2cccnc2)c2cn(C)c3ccccc23)cc1 (configuration not stated) |
| 646 | COc1ccc(CNC(=O)C2CCN(c3nnc4cccc(C)n34)CC2)cc1 |
| 713 | Cc1cc(NC(=O)c2ccccc2C(F)(F)F)sn1 |
